Where “and” joins values, the source holds several entries; their conditions need not be identical. Equal entries are not always repeated. Numbers after ± are expanded uncertainties.
Test: molar heat capacity at constant pressure
Conditions: 101.33 kPa, relaxation calorimetry

CCc1ncc[n-]1.CCc1ncc[n-]1.[Zn+2] [zinc(II) 2-ethylimidazolide]
molar heat capacity at constant pressure
Conditions	Crystal	Glass
130.99 K	145.58 ± 5.9 J/K/mol	–
131.26 K	–	150.5 ± 6.1 J/K/mol
131.27 K	153.88 ± 6.2 J/K/mol	–
131.28 K	157.12 ± 6.4 J/K/mol	–
140 K	152.15 ± 6.2 J/K/mol and 161.18 ± 6.5 J/K/mol and 164.35 ± 6.7 J/K/mol	157.54 ± 6.4 J/K/mol
141.06 K	152.68 ± 6.2 J/K/mol	–
141.38 K	–	158.36 ± 6.4 J/K/mol
141.4 K	162.12 ± 6.6 J/K/mol	–
141.42 K	164.9 ± 6.7 J/K/mol	–
150 K	159.28 ± 6.5 J/K/mol and 168.81 ± 6.9 J/K/mol and 172.14 ± 7 J/K/mol	165.02 ± 6.7 J/K/mol
151.12 K	159.89 ± 6.5 J/K/mol	–
151.43 K	–	166.3 ± 6.8 J/K/mol
151.46 K	170.21 ± 6.9 J/K/mol	–
151.47 K	173.16 ± 7 J/K/mol	–
160 K	166.18 ± 6.8 J/K/mol and 176.23 ± 7.2 J/K/mol and 179.71 ± 7.3 J/K/mol	172.32 ± 7 J/K/mol
161.25 K	166.65 ± 6.8 J/K/mol	–
161.56 K	–	173.36 ± 7 J/K/mol
161.59 K	177.25 ± 7.2 J/K/mol	–
161.61 K	180.61 ± 7.3 J/K/mol	–
170 K	172.92 ± 7 J/K/mol and 183.53 ± 7.5 J/K/mol and 187.14 ± 7.6 J/K/mol	179.51 ± 7.3 J/K/mol
171.35 K	173.33 ± 7 J/K/mol	–
171.6 K	–	180.21 ± 7.3 J/K/mol
171.65 K	184.06 ± 7.5 J/K/mol	–
171.67 K	188.03 ± 7.6 J/K/mol	–
180 K	179.56 ± 7.3 J/K/mol and 190.75 ± 7.8 J/K/mol and 194.49 ± 7.9 J/K/mol	186.63 ± 7.6 J/K/mol
181.43 K	180.52 ± 7.3 J/K/mol	–
181.69 K	–	187.69 ± 7.6 J/K/mol
181.74 K	192.24 ± 7.8 J/K/mol	–
181.77 K	196.44 ± 8 J/K/mol	–
190 K	186.14 ± 7.6 J/K/mol and 197.94 ± 8 J/K/mol and 201.82 ± 8.2 J/K/mol	193.72 ± 7.9 J/K/mol
191.5 K	187.51 ± 7.6 J/K/mol	–
191.77 K	–	195.38 ± 7.9 J/K/mol
191.83 K	199.47 ± 8.1 J/K/mol	–
191.86 K	203.36 ± 8.3 J/K/mol	–
200 K	192.7 ± 7.8 J/K/mol and 205.14 ± 8.3 J/K/mol and 209.16 ± 8.5 J/K/mol	200.81 ± 8.2 J/K/mol
201.6 K	194.57 ± 7.9 J/K/mol	–
201.91 K	–	202.56 ± 8.2 J/K/mol
201.98 K	207.07 ± 8.4 J/K/mol	–
202.01 K	211.73 ± 8.6 J/K/mol	–
210 K	199.27 ± 8.1 J/K/mol and 212.36 ± 8.6 J/K/mol and 216.56 ± 8.8 J/K/mol	207.92 ± 8.4 J/K/mol
211.69 K	200.92 ± 8.2 J/K/mol	–
211.98 K	–	209.72 ± 8.5 J/K/mol
212.06 K	214.46 ± 8.7 J/K/mol	–
212.09 K	218.97 ± 8.9 J/K/mol	–
220 K	205.88 ± 8.4 J/K/mol and 219.65 ± 8.9 J/K/mol and 224.03 ± 9.1 J/K/mol	215.06 ± 8.7 J/K/mol
221.78 K	207.56 ± 8.4 J/K/mol	–
221.99 K	–	216.74 ± 8.8 J/K/mol
222.09 K	221.43 ± 9 J/K/mol	–
222.12 K	225.68 ± 9.2 J/K/mol	–
230 K	212.55 ± 8.6 J/K/mol and 227.01 ± 9.2 J/K/mol and 231.6 ± 9.4 J/K/mol	222.25 ± 9 J/K/mol
231.87 K	213.47 ± 8.7 J/K/mol	–
232.05 K	–	223.82 ± 9.1 J/K/mol
232.17 K	228.3 ± 9.3 J/K/mol	–
232.21 K	233.03 ± 9.5 J/K/mol	–
240 K	219.29 ± 8.9 J/K/mol and 234.46 ± 9.5 J/K/mol and 239.29 ± 9.7 J/K/mol	229.49 ± 9.3 J/K/mol
241.95 K	220.69 ± 9 J/K/mol	–
242.11 K	–	230.23 ± 9.3 J/K/mol
242.25 K	235.6 ± 9.6 J/K/mol	–
242.28 K	240.2 ± 9.8 J/K/mol	–
250 K	226.12 ± 9.2 J/K/mol and 242.01 ± 9.8 J/K/mol and 247.11 ± 10 J/K/mol	236.79 ± 9.6 J/K/mol
252.04 K	227.71 ± 9.2 J/K/mol	–
252.26 K	–	238.21 ± 9.7 J/K/mol
252.41 K	243.81 ± 9.9 J/K/mol	–
252.44 K	248.76 ± 10 J/K/mol	–
260 K	233.06 ± 9.5 J/K/mol and 249.68 ± 10 J/K/mol and 255.08 ± 10 J/K/mol	244.16 ± 9.9 J/K/mol
262.15 K	234.66 ± 9.5 J/K/mol	–
262.32 K	–	245.55 ± 10 J/K/mol
262.49 K	251.06 ± 10 J/K/mol	–
262.53 K	256.2 ± 10 J/K/mol	–
270 K	240.1 ± 9.8 J/K/mol and 257.46 ± 10 J/K/mol and 263.21 ± 11 J/K/mol	251.6 ± 10 J/K/mol
272.26 K	239.9 ± 9.7 J/K/mol	–
272.38 K	–	253.18 ± 10 J/K/mol
272.57 K	259.14 ± 11 J/K/mol	–
272.61 K	264.93 ± 11 J/K/mol	–
273.15 K	242.35 ± 9.8 J/K/mol and 259.94 ± 11 J/K/mol and 265.8 ± 11 J/K/mol	253.96 ± 10 J/K/mol
280 K	247.27 ± 10 J/K/mol and 265.38 ± 11 J/K/mol and 271.5 ± 11 J/K/mol	259.1 ± 11 J/K/mol
282.33 K	249.22 ± 10 J/K/mol	–
282.34 K	–	261.68 ± 11 J/K/mol
282.56 K	268.2 ± 11 J/K/mol	–
282.6 K	274.43 ± 11 J/K/mol	–
290 K	254.56 ± 10 J/K/mol and 273.43 ± 11 J/K/mol and 279.96 ± 11 J/K/mol	266.68 ± 11 J/K/mol
292.42 K	254.66 ± 10 J/K/mol	–
292.48 K	–	268.78 ± 11 J/K/mol
292.71 K	275.78 ± 11 J/K/mol	–
292.77 K	282.45 ± 11 J/K/mol	–
298.15 K	260.6 ± 11 J/K/mol and 280.09 ± 11 J/K/mol and 287 ± 12 J/K/mol	272.9 ± 11 J/K/mol
300 K	261.99 ± 11 J/K/mol and 281.62 ± 11 J/K/mol and 288.61 ± 12 J/K/mol	274.31 ± 11 J/K/mol
302.52 K	265.92 ± 11 J/K/mol	–
302.54 K	–	275.95 ± 11 J/K/mol
302.81 K	283.82 ± 12 J/K/mol	–
302.88 K	291.43 ± 12 J/K/mol	–
